Tests used:
CDK2/Cyclin E1 = CDK2/Cyclin E1 (Homo sapiens, UniProt P24941); assay: CDK2/Cyclin E1 Biochemical Assay (TR-FRET), 1 mM ATP; conditions: 0.15 μM Rb (Ser780)-biotin substrate, pH7.0, 60 min preincubation, 90 min reaction, room temperature
Procedure: (§1) CDK2/Cyclin E1 and CDK1/Cyclin B1 Biochemical Assays
(§2) Compounds disclosed herein were tested for inhibition of CDK2/Cyclin E1 or CDK1/Cyclin B1 kinase in an assay based on the time-resolved fluorescence-resonance energy transfer (TR-FRET) methodology. The assay was carried out in 384-well low volume black plates in a reaction mixture containing CDK2/Cyclin E1 or CDK1/Cyclin B1, 1 mM ATP for CDK2/Cyclin E1 and CDK1/Cyclin B1, 0.15 μM Rb (Ser780)-biotin substrate and 0-10 μM compound in buffer containing 50 mM HEPES pH7.0, 0.02% NaN3, 0.01% BSA, 0.1 mM Orthovanadate, 50 mM MgCl2, 1 mM DTT and 0.005% Tween-20. The kinase was incubated with compound for 60 minutes at room temperature and the reaction was initiated by the addition of ATP and Rb (Ser780)-biotin substrate. After reaction at room temperature for 90 minutes, an equal volume of stop/detection solution was added according to the manufacture's instruction (Cisbio Bioassays). The stop/detection solution contained Streptavidin-XL665 and Anti-pRb (Ser780) mAb-Eu Cryptate in Detection buffer (Cisbio Bioassays). Plates were incubated at room temperature for 60 minutes, and the TR-FRET signals (ex337 nm, em665 nm/620 nm) were recorded on a PHERAstar FSX plate reader (BMG Labtech). The inhibition percentage of CDK2/Cyclin E1 or CDK1/Cyclin B1 kinase activity in presence of increasing concentrations of compounds was calculated based on the ratio of fluorescence at 665 nm to that at 620 nm. The IC50 for each compound was derived from fitting the data to the four-parameter logistic equation by Dotmatics.

CDK1/Cyclin B1 = CDK1/Cyclin B1 (Homo sapiens, UniProt P06493); assay: CDK1/Cyclin B1 Biochemical Assay (TR-FRET), 1 mM ATP; conditions: 0.15 μM Rb (Ser780)-biotin substrate, pH7.0, 60 min preincubation, 90 min reaction, room temperature
Chain of CDK1/Cyclin B1 (P06493 whole entry): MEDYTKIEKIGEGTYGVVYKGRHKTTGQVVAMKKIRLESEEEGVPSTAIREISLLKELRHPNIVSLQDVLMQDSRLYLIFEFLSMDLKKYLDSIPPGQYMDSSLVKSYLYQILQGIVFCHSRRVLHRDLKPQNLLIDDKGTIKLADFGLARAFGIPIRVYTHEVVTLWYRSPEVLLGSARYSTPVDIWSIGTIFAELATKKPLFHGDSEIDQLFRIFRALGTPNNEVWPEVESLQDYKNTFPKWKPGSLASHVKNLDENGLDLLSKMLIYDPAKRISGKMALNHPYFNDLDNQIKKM
Chain of CDK1/Cyclin B1 (P14635 whole entry partner): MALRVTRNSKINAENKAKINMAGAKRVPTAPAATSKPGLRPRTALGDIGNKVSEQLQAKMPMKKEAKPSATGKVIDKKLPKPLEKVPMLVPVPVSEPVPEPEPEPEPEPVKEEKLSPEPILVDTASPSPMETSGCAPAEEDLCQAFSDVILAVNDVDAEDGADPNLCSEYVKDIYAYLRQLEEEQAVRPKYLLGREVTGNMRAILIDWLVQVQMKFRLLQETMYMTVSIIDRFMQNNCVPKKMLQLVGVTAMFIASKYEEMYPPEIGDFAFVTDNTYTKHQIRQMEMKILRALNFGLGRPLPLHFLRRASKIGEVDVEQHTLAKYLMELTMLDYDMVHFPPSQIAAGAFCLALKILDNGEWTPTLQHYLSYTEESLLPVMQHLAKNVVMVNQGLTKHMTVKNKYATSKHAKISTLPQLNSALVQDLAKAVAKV
Procedure: as §1, §2

Row | IC50 (CDK2/Cyclin E1) [nM] | IC50 (CDK1/Cyclin B1) [nM] | Structure (SMILES)
1 | 16 | 7870 | CC(C)(CO)NC(=O)O[C@H]1CC[C@@H](c2cc(Nc3cc4c(cc3F)S(=O)(=O)NC4)n[nH]2)C1 (relative stereo) [Example 444, cis-3-(3-((6-fluoro-1,1-dioxido-2,3-dihydrobenzo[d]isothiazol-5-yl)amino)-1H-pyrazol-5-yl)cyclopentyl(1-hydroxy-2-methylpropan-2-yl)carbamate]
2 | 1.8 | 1050 | CC1(NC(=O)O[C@H]2CC[C@@H](c3cc(Nc4cc5c(cc4F)S(=O)(=O)NC5)n[nH]3)C2)CCC1 (relative stereo) [Example 445, cis-3-(3-((6-fluoro-1,1-dioxido-2,3-dihydrobenzo[d]isothiazol-5-yl)amino)-1H-pyrazol-5-yl)cyclopentyl(1-methylcyclobutyl)carbamate]
3 | 1.7 | 1400 | CC1(NC(=O)O[C@H]2CC[C@@H](c3cc(Nc4cc5c(cc4F)S(=O)(=O)NC5)n[nH]3)C2)CCCC1 (relative stereo) [Example 446, cis-3-(3-((6-fluoro-1,1-dioxido-2,3-dihydrobenzo[d]isothiazol-5-yl)amino)-1H-pyrazol-5-yl)cyclopentyl(1-methylcyclopentyl)carbamate]
4 | 4.8 | 1280 | CC1(C)CCCN1C(=O)O[C@H]1CC[C@@H](c2cc(Nc3cc4c(cc3F)S(=O)(=O)NC4)n[nH]2)C1 (relative stereo) [Example 447, cis-3-(3-((6-fluoro-1,1-dioxido-2,3-dihydrobenzo[d]isothiazol-5-yl)amino)-1H-pyrazol-5-yl)cyclopentyl 2,2-dimethylpyrrolidine-1-carboxylate]
5 | 4.1 | 1190 | CC1(C)CCN1C(=O)O[C@H]1CC[C@@H](c2cc(Nc3cc4c(cc3F)S(=O)(=O)NC4)n[nH]2)C1 (relative stereo) [Example 449, cis-3-(3-((6-fluoro-1,1-dioxido-2,3-dihydrobenzo[d]isothiazol-5-yl)amino)-1H-pyrazol-5-yl)cyclopentyl 2,2-dimethylazetidine-1-carboxylate]
6 | 7.6 | 6180 | CC1(NC(=O)O[C@H]2CC[C@@H](c3cc(Nc4cc5c(cc4F)S(=O)(=O)NC5)n[nH]3)C2)CCOC1 (relative stereo) [Example 450, cis-3-(3-((6-fluoro-1,1-dioxido-2,3-dihydrobenzo[d]isothiazol-5-yl)amino)-1H-pyrazol-5-yl)cyclopentyl(3-methyltetrahydrofuran-3-yl)carbamate]
7 | 9.9 | 7050 | CC1(NC(=O)O[C@H]2CC[C@@H](c3cc(Nc4cc5c(cc4F)S(=O)(=O)NC5)n[nH]3)C2)COC1 (relative stereo) [Example 451, cis-3-(3-((6-fluoro-1,1-dioxido-2,3-dihydrobenzo[d]isothiazol-5-yl)amino)-1H-pyrazol-5-yl)cyclopentyl(3-methyloxetan-3-yl)carbamate]
8 | 0.5 | 550 | O=C(NC12CC(O)(C1)C2)O[C@H]1CC[C@@H](c2cc(Nc3cc4c(cc3F)S(=O)(=O)NC4)n[nH]2)C1 (relative stereo) [Example 456, cis-3-(3-((6-fluoro-1,1-dioxido-2,3-dihydrobenzo[d]isothiazol-5-yl)amino)-1H-pyrazol-5-yl)cyclopentyl(3-hydroxybicyclo[1.1.1]pentan-1-yl)carbamate]

Further lines, the compound ahead of its results:

Row | Structure (SMILES) | IC50 (CDK2/Cyclin E1) [nM] | IC50 (CDK1/Cyclin B1) [nM]
9 | CC1(NC(=O)O[C@H]2CC[C@@H](c3cc(Nc4ccc5c(c4F)CS(=O)(=O)N5)n[nH]3)C2)CCCC1 (relative stereo) [Example 439, cis-3-(3-((4-fluoro-2,2-dioxido-1,3-dihydrobenzo[c]isothiazol-5-yl)amino)-1H-pyrazol-5-yl)cyclopentyl(1-methylcyclopentyl)carbamate] | 2.7 | 215
10 | CN(C(=O)O[C@H]1CC[C@@H](c2cc(Nc3cc4c(cc3F)S(=O)(=O)NC4)n[nH]2)C1)C1CCOC1 (relative stereo) [Example 440, cis-3-(3-((6-fluoro-1,1-dioxido-2,3-dihydrobenzo[d]isothiazol-5-yl)amino)-1H-pyrazol-5-yl)cyclopentyl methyl(tetrahydrofuran-3-yl)carbamate] | 189 | > 10000
11 | CN(C(=O)O[C@H]1CC[C@@H](c2cc(Nc3ccc4c(c3F)CS(=O)(=O)N4)n[nH]2)C1)C1CCOC1 (relative stereo) [Example 441, cis-3-(3-((4-fluoro-2,2-dioxido-1,3-dihydrobenzo[c]isothiazol-5-yl)amino)-1H-pyrazol-5-yl)cyclopentyl methyl(tetrahydrofuran-3-yl)carbamate] | 47 | 5060
12 | O=C(N[C@@H]1C[C@H]1O)O[C@H]1CC[C@@H](c2cc(Nc3ccc4c(c3F)CNS4(=O)=O)n[nH]2)C1 (relative stereo) [Example 442, cis-3-(3-((4-fluoro-1,1-dioxido-2,3-dihydrobenzo[d]isothiazol-5-yl)amino)-1H-pyrazol-5-yl)cyclopentyl((1R,2R)-2-hydroxycyclopropyl)carbamate] | 55 | 2990
13 | CC(C)(CO)NC(=O)O[C@H]1CC[C@@H](c2cc(Nc3ccc4c(c3F)CS(=O)(=O)N4)n[nH]2)C1 (relative stereo) [Example 443, cis-3-(3-((4-fluoro-2,2-dioxido-1,3-dihydrobenzo[c]isothiazol-5-yl)amino)-1H-pyrazol-5-yl)cyclopentyl(1-hydroxy-2-methylpropan-2-yl)carbamate] | 1.6 | 582
14 | O=C(NC12CC(C1)C2)O[C@H]1CC[C@@H](c2cc(Nc3ccc4c(c3F)CS(=O)(=O)N4)n[nH]2)C1 (relative stereo) [Example 448, cis-3-(3-((4-fluoro-2,2-dioxido-1,3-dihydrobenzo[c]isothiazol-5-yl)amino)-1H-pyrazol-5-yl)cyclopentyl bicyclo[1.1.1]pentan-1-ylcarbamate] | 1.1 | 65
15 | CN1c2ccc(Nc3cc([C@@H]4CC[C@H](OC(=O)NC56CC(C5)C6)C4)[nH]n3)c(F)c2CS1(=O)=O (relative stereo) [Example 452, cis-3-(3-((4-fluoro-1-methyl-2,2-dioxido-1,3-dihydrobenzo[c]isothiazol-5-yl)amino)-1H-pyrazol-5-yl)cyclopentyl bicyclo[1.1.1]pentan-1-ylcarbamate] | 0.5 | 487
16 | CN1c2ccc(Nc3cc([C@@H]4CC[C@H](OC(=O)NC(C)(C)C)C4)[nH]n3)c(F)c2CS1(=O)=O (relative stereo) [Example 453, cis-3-(3-((4-fluoro-1-methyl-2,2-dioxido-1,3-dihydrobenzo[c]isothiazol-5-yl)amino)-1H-pyrazol-5-yl)cyclopentyl tert-butylcarbamate] | 0.9 | 446
17 | [2H]C([2H])([2H])N1c2ccc(Nc3cc([C@@H]4CC[C@H](OC(=O)NC(C)(C)C)C4)[nH]n3)cc2CS1(=O)=O (relative stereo) [Example 454, cis-3-(3-((1-(methyl-d3)-2,2-dioxido-1,3-dihydrobenzo[c]isothiazol-5-yl)amino)-1H-pyrazol-5-yl)cyclopentyl tert-butylcarbamate] | 0.5 | 114
18 | [2H]C([2H])([2H])N1c2ccc(Nc3cc([C@@H]4CC[C@H](OC(=O)NC56CC(C5)C6)C4)[nH]n3)cc2CS1(=O)=O (relative stereo) [Example 455, cis-3-(3-((1-(methyl-d3)-2,2-dioxido-1,3-dihydrobenzo[c]isothiazol-5-yl)amino)-1H-pyrazol-5-yl)cyclopentyl bicyclo[1.1.1]pentan-1-ylcarbamate] | 0.9 | 97
19 | O=C(NC12CCC(O)(CC1)CC2)O[C@H]1CC[C@@H](c2cc(Nc3cc4c(cc3F)S(=O)(=O)NC4)n[nH]2)C1 (relative stereo) [Example 457, cis-3-(3-((6-fluoro-1,1-dioxido-2,3-dihydrobenzo[d]isothiazol-5-yl)amino)-1H-pyrazol-5-yl)cyclopentyl(4-hydroxybicyclo[2.2.2]octan-1-yl)carbamate] | 1.8 | 1110
20 | CC(C)NC(=O)O[C@H]1CC[C@@H](c2cc(Nc3ccc4c(c3F)N(C)S(=O)(=O)N4C)n[nH]2)C1 (relative stereo) [Example 458, cis-3-(3-((4-fluoro-1,3-dimethyl-2,2-dioxido-1,3-dihydrobenzo[c][1,2,5]thiadiazol-5-yl)amino)-1H-pyrazol-5-yl)cyclopentyl isopropylcarbamate] | 12 | 3500
21 | O=C(NC1CC1)O[C@H]1CC[C@@H](c2cc(Nc3ccc4c(c3F)CS(=O)(=O)N4)n[nH]2)C1 (relative stereo) [Example 459, cis-3-(3-((4-fluoro-2,2-dioxido-1,3-dihydrobenzo[c]isothiazol-5-yl)amino)-1H-pyrazol-5-yl)cyclopentyl cyclopropylcarbamate] | 6 | 1970

Reference: US20260297080A1, “BICYCLIC COMPOUNDS AS CDK INHIBITORS” (BeOne Medicines I GmbH, priority 2022, published 2026)
